Patent US7179825B2, “Retinoic acid mimetic anilides” (Janssen Pharmaceutica N.V., priority 1997, dated 2007)

Assays:
Ovariectomized rats = assay: Vaginal keratinization test on ovariectomized rats (Example C.2); assay type: in vivo; details: estradiol undecylate induced keratinization, per os once daily on days 1-3, active dose = 50% of rats show complete suppression
How it was run: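 Value is the lowest oral dose (mg/kg) at which half of tested rats show complete suppression of estradiol undecylate-induced vaginal keratinization by histology. Ovariectomized rats received 100 μg/100 g estradiol undecylate s.c., then compound or PEG 200 vehicle p.o. daily for three days; sacrifice one day later.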

[1] = tested on: metabolism of retinoic acid in human breast cancer cells; assay: Inhibition of retinoic acid (RA) metabolism (Example C.1); assay type: cell-based; details: MCF-7 human breast cancer cells, 3H-RA as substrate; concentration needed to reduce the amount of metabolites to 50% of the control
How it was run: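 Test compound (in 1% DMSO) added at several concentrations to MCF-7 cell suspensions fed ³H-RA, after RA induction of metabolism one day earlier. Scintillation counting of the separated polar metabolite fraction; IC50 = concentration giving 50% of control metabolite level.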

IC50 [1]	SMILES	LAD (lowest active dose) (Ovariectomized rats)
1.74 nM	CCCC(CCC)C(c1ccc(NC(=O)Cc2ccc(OC)c(OC)c2)cc1)n1ccnc1 (racemic) [Compound 378]	2.50 mg/kg
8.34 nM	CCC(CC)C(c1ccc(N(C)C(=O)Cc2ccc(OC)c(OC)c2)cc1)n1ccnc1 (racemic) [Compound 427]	2.50 mg/kg
2.87 nM	C/C(=C\c1ccccc1)C(=O)Nc1ccc(C(C(C)C)n2ccnc2)cc1 (racemic) [Compound 455]	2.50 mg/kg
140 nM	Cc1ccccc1C(=Cc1ccccc1)C(=O)Nc1ccc(C(C(C)C)n2ccnc2)cc1 (racemic) [Compound 456]	>20.00 mg/kg
25 nM	CCC(=Cc1ccccc1)C(=O)Nc1ccc(C(C(C)C)n2ccnc2)cc1 (racemic) [Compound 457]	>20.00 mg/kg
36.3 nM	CCC(c1ccc(NC(=O)/C(C)=C/c2ccccc2)cc1)n1ccnc1 (racemic) [Compound 460]	>20.00 mg/kg
16.9 nM	CC(C)C(c1ccc(NC(=O)C(F)=Cc2ccccc2)cc1)n1ccnc1 (racemic) [Compound 461]	10.00 mg/kg
149 nM	CCC/C(=C\c1ccccc1)C(=O)Nc1ccc(C(C(C)C)n2ccnc2)cc1 (racemic) [Compound 464]	>20.00 mg/kg
50.4 nM	CCCC/C(=C\c1ccccc1)C(=O)Nc1ccc(C(C(C)C)n2ccnc2)cc1 (racemic) [Compound 465]	>20.00 mg/kg
2.58 nM	CCCC(c1ccc(NC(=O)/C(C)=C/c2ccccc2)cc1)n1ccnc1 (racemic) [Compound 467]	>20.00 mg/kg
> 100 nM	O=C(Nc1ccc(C(C2CCCCC2)n2ccnc2)cc1)/C(=C/c1ccccc1)c1ccccc1 (racemic) [Compound 468]	10.00 mg/kg
> 100 nM	CC(C)C(c1ccc(NC(=O)/C(=C/c2ccccc2)C2CCCCC2)cc1)n1ccnc1 (racemic) [Compound 473]	>10.00 mg/kg
> 1000 nM	C/C(=C\c1ccccc1)C(=O)Nc1ccc(C(C2COCOC2)n2ccnc2)cc1 (racemic) [Compound 477]	>10.00 mg/kg
1.63 nM	CCC(CC)C(c1ccc(NC(=O)/C(C)=C/c2ccccc2)cc1)n1ccnc1 (racemic) [Compound 478]	2.50 mg/kg
> 100 nM	C/C(=C\c1ccccc1)C(=O)Nc1ccc(C(C(c2ccccc2)c2ccccc2)n2ccnc2)cc1 (racemic) [Compound 485]	5.00 mg/kg
32.9 nM	CC(C)C(c1ccc(NC(=O)/C=C/c2ccccc2)cc1)n1ccnc1 (racemic) [Compound 502]	5.00 mg/kg
10.5 nM	CC(C)C(c1ccc(NC(=O)C=C(c2ccccc2)c2ccccc2)cc1)n1ccnc1 (racemic) [Compound 511]	>20.00 mg/kg
860 nM	CCCCC(=CC(=O)Nc1ccc(C(c2ccc(Cl)cc2)n2ccnc2)cc1)c1ccccc1 (racemic) [Compound 513]	>20.00 mg/kg
12.4 nM	CC(=Cc1ccc(Cl)cc1)C(=O)Nc1ccc(C(C(C)C)n2ccnc2)cc1 (racemic) [Compound 579]	10.00 mg/kg
1.58 nM	COc1ccc(/C=C(\C)C(=O)Nc2ccc(C(C(C)C)n3ccnc3)cc2)cc1 (racemic) [Compound 582]	>10.00 mg/kg
2.78 nM	C/C(=C\c1ccc(F)cc1)C(=O)Nc1ccc(C(C(C)C)n2ccnc2)cc1 (racemic) [Compound 583]	10.00 mg/kg
3.74 nM	CC(=Cc1cccc(F)c1)C(=O)Nc1ccc(C(C(C)C)n2ccnc2)cc1 (racemic) [Compound 586]	>10.00 mg/kg
31.6 nM	CC(=CCCc1ccccc1)C(=O)Nc1ccc(C(C(C)C)n2ccnc2)cc1 (racemic) [Compound 587]	>10.00 mg/kg
2.75 nM	C/C(=C\Cc1ccccc1)C(=O)Nc1ccc(C(C(C)C)n2ccnc2)cc1 (racemic) [Compound 589]	10.00 mg/kg
4.15 nM	C/C(=C\c1ccnc2ccccc12)C(=O)Nc1ccc(C(C(C)C)n2ccnc2)cc1 (racemic) [Compound 592]	>10.00 mg/kg

Second part, the compound before the results:

SMILES	IC50 [1]	LAD (lowest active dose) (Ovariectomized rats)
O=C(Cc1ccc(Cl)cc1)Nc1ccc(C(c2ccc(Cl)cc2)n2ccnc2)cc1 (racemic) [Compound 356]	> 100 nM	>10.00 mg/kg
CC(c1ccc(NC(=O)Cc2ccc(Cl)cc2)cc1)n1ccnc1 (racemic) [Compound 358]	> 100 nM	>10.00 mg/kg
CC(C)CC(c1ccc(NC(=O)Cc2ccc(Cl)cc2)cc1)n1ccnc1 (racemic) [Compound 359]	6.25 nM	>10.00 mg/kg
CC(C)(C)CC(c1ccc(NC(=O)Cc2ccc(Cl)cc2)cc1)n1ccnc1 (racemic) [Compound 360]	1.08 nM	2.50 mg/kg
CCC(C)C(c1ccc(NC(=O)Cc2ccc(Cl)cc2)cc1)n1ccnc1 (racemic) [Compound 364]	1.41 nM	2.50 mg/kg
COCC(C)C(c1ccc(NC(=O)Cc2ccc(OC)c(OC)c2)cc1)n1ccnc1 (racemic) [Compound 404, (±)-(A)-3,4-dimethoxy-N-[4-[1-(1H-imidazol-1-yl)-3-methoxy-2-methylpropyl]phenyl]benzeneacetamide]	1.35 nM	5.00 mg/kg
C/C(=C\c1ccccc1)C(=O)N(C)c1ccc(C(C(C)C)n2ccnc2)cc1 (racemic) [Compound 421]	> 100 nM	>10.00 mg/kg
CCN(C(=O)/C(C)=C/c1ccccc1)c1ccc(C(C(C)C)n2ccnc2)cc1 (racemic) [Compound 422]	> 10 nM	>10.00 mg/kg
O=C(Nc1ccc(C(c2ccccc2)n2ccnc2)cc1)c1cnccn1 (racemic) [Compound 424]	> 100 nM	>10.00 mg/kg
CN(C)CC(c1ccc(NC(=O)Oc2ccccc2)cc1)n1ccnc1 (racemic) [Compound 435]	2.8 nM	>2.50 mg/kg
CC(=Cc1ccccc1)C(=O)Nc1ccc(C(c2ccccc2)n2ccnc2)cc1 (racemic) [Compound 445]	192 nM	>20.00 mg/kg
CCCCC(c1ccc(NC(=O)/C(C)=C/c2ccccc2)cc1)n1ccnc1 (racemic) [Compound 462]	> 1000 nM	20.00 mg/kg
C/C(=C\c1ccccc1)C(=O)Nc1ccc(C(C2CCCCC2)n2ccnc2)cc1 (racemic) [Compound 463]	24.5 nM	20.00 mg/kg
C/C(=C\c1ccccc1)C(=O)Nc1ccc(C(C)n2ccnc2)cc1 (racemic) [Compound 466]	> 1000 nM	>20.00 mg/kg
C/C(=C\c1ccccc1)C(=O)Nc1ccc(C(C2CC2)n2ccnc2)cc1 (racemic) [Compound 469]	> 100 nM	>10.00 mg/kg
C/C(=C\c1ccccc1)C(=O)Nc1ccc(C(C2CCCC2)n2ccnc2)cc1 (racemic) [Compound 470]	18.7 nM	>20.00 mg/kg
CC(C)C(c1ccc(NC(=O)C(=Cc2ccccc2)C2CCCC2)cc1)n1ccnc1 (racemic) [Compound 472]	95.1 nM	>20.00 mg/kg
C/C(=C\c1ccccc1)C(=O)Nc1ccc(C(CC(C)C)n2ccnc2)cc1 (racemic) [Compound 474]	15.9 nM	>10.00 mg/kg
C/C(=C\c1ccccc1)C(=O)Nc1ccc(C(n2ccnc2)C(C)(C)C)cc1 (racemic) [Compound 481]	2.83 nM	10.00 mg/kg
O=C(/C=C/c1ccccc1)Nc1ccc(C(c2ccccc2)n2ccnc2)cc1 (racemic) [Compound 497]	37.6 nM	>20.00 mg/kg
CC(=CC(=O)Nc1ccc(C(c2ccc(Cl)cc2)n2ccnc2)cc1)c1ccccc1 (racemic) [Compound 512]	616 nM	>20.00 mg/kg
C/C=C(\C)C(=O)Nc1ccc(C(C(C)C)n2ccnc2)cc1 (racemic) [Compound 574]	1.78 nM	20.00 mg/kg
C/C(=C\c1cccnc1)C(=O)Nc1ccc(C(C(C)C)n2ccnc2)cc1 (racemic) [Compound 575]	25.7 nM	20.00 mg/kg
C/C(=C\c1cccc(Cl)c1)C(=O)Nc1ccc(C(C(C)C)n2ccnc2)cc1 (racemic) [Compound 577]	42.3 nM	10.00 mg/kg
CC(=Cc1cccc(C(F)(F)F)c1)C(=O)Nc1ccc(C(C(C)C)n2ccnc2)cc1 (racemic) [Compound 578]	7.67 nM	>10.00 mg/kg
C/C(=C\c1ccccc1F)C(=O)Nc1ccc(C(C(C)C)n2ccnc2)cc1 (racemic) [Compound 585]	7.21 nM	10.00 mg/kg
C/C(=C\c1ccc2ncccc2c1)C(=O)Nc1ccc(C(C(C)C)n2ccnc2)cc1 (racemic) [Compound 590]	2.78 nM	>10.00 mg/kg
C/C(=C\c1ccc2ccccc2c1)C(=O)Nc1ccc(C(C(C)C)n2ccnc2)cc1 (racemic) [Compound 591]	40.1 nM	>10.00 mg/kg
